Test results published in ChEMBL document CHEMBL5046245, “Identification of Pyruvate Carboxylase as the Cellular Target of Natural Bibenzyls with Potent Anticancer Activity against Hepatocellular Carcinoma via Metabolic Reprogramming” (J Med Chem, 2022).
Calls of active or inactive are those of the source. No cut-off for these calls is given here.

Assays:
[1] = Systemic toxicity in NCR-nu/nu mouse bearing human HCCLM3 tumor assessed as pathological change in heart at 25 to 50 mg/kg, ip administered alternate days for 21 days and measured 26 days post implantation by H and E staining based analysis; format: organism-based; conditions: in vivo, 504 h, dose 25-50 mg/kg, time 21 day
HepG2 [2] = assay: Induction of apoptosis in human HepG2 cells assessed as increase cleaved PARP level measured after 24 hrs by Western blot analysis; format: functional, cell-based; conditions: dose 10-40 nM
HepG2 [3] = assay: Induction of apoptosis in human HepG2 cells xenografted in NCR-nu/nu mouse assessed as increase in total apoptotic cells in tumor at 50 mg/kg, ip administered alternate days for 21 days and measured 26 days post implantation by TUNEL staining based confocal microscopic analysis; format: functional, organism-based; conditions: time 21.0 day
HCCLM3 [4] = assay: Induction of glycolysis in human HCCLM3 cells assessed as decrease in level of serine at 5 nM; format: functional, cell-based
SK-HEP1 [5] = assay: Anti-invasive activity in human SK-HEP1 cells overexpressing PC assessed as suppression of cell invasion at 0.05 nM measured after 48 hrs by transwell assay; format: functional, cell-based
HepG2 [6] = assay: Cytotoxicity against PC knockout human HepG2 cells assessed as reduction in cell viability at 20 to 100 nM measured after 48 hrs by MTT assay; format: functional, cell-based; conditions: dose 20-100 nM
HepG2 [7] = assay: Antitumor activity against human HepG2 cells xenografted in NCR-nu/nu mouse assessed wet tumor weight at 50 mg/kg, ip administered alternate days for 21 days and measured 26 days post implantation (Rvb= 0.92 +/- 0.13 g); format: functional; conditions: time 21 day
SK-HEP1 [8] = assay: Inhibition of mesenchymal transition in human SK-HEP1 cells overexpressing PC assessed as effect on vimentin expression; format: functional, cell-based
HCCLM3 [9] = assay: Induction of apoptosis in human HCCLM3 cells xenografted in NCR-nu/nu mouse assessed as increase in total apoptotic cells in tumor at 25 to 50 mg/kg, ip administered alternate days for 21 days and measured 26 days post implantation by TUNEL staining based confocal microscopic analysis; format: functional, organism-based; conditions: dose 25-50 mg/kg, time 21.0 day
MHCC97 = assay: Antiproliferative activity against human MHCC97 cells assessed as inhibition of cell growth measured after 48 hrs by MTT assay; format: functional, cell-based; conditions: MHCC97, 48 h
HCCLM3 [10] = assay: Induction of glycolysis in human HCCLM3 cells assessed as decrease in level of acetyl-CoA at 5 nM; format: functional, cell-based
HepG2 [11] = assay: Antitumor activity against human HepG2 cells xenografted in NCR-nu/nu mouse assessed reduction in tumor growth at 25 to 50 mg/kg, ip administered alternate days for 21 days and measured 26 days post implantation; format: functional, organism-based; conditions: dose 25-50 mg/kg, time 21.0 day
[12] = biological target: AMP-activated protein kinase, AMPK (Homo sapiens) (UniProt P54646+O43741+P54619+Q9UGJ0+Q9Y478+Q13131+Q9UGI9); assay: Activation of AMPK pathway in human HCCLM3 cells assessed as increase in AMPK phosphorylation level at 5 nM measured after 1 hr by Western blot analysis; format: cell-based; conditions: filed as activator
HepG2 [13] = assay: Competitive inhibition of recombinant pyruvate carboxylase in human HepG2 cell lysate in presence of Erianin at 20 uM for 120 mins followed by irradiation of 365 nm UV light for 15 min by Native -PAGE analysis; format: subcellular
HepG2 [14] = assay: Induction of caspase-mediated apoptosis in human HepG2 cells assessed as reduction in cell viability at 100 to 400 nM incubated for 48 hrs in presence of Z-VAD-FMK by MTT assay; format: functional, cell-based; conditions: dose 100-400 nM
[15] = Antitumor activity against human HCCLM3 cells xenografted in NCR-nu/nu mouse assessed wet tumor weight at 25 mg/kg, ip administered alternate days for 21 days and measured 26 days post implantation (Rvb= 1.835 +/- 0.15 g); format: functional; conditions: time 21 day
HCCLM3 [16] = assay: Induction of apoptosis in human HCCLM3 cells assessed as cell rounding at 20 nM incubated for 24 hrs by DAPI staining based phase contrast microscopic analysis; format: functional
[17] = Inhibition of pyruvate carboxylase in human HCCLM3 cells measured upto 24 hrs by PC assay kit; format: cell-based
SK-HEP1 [18] = assay: Antimigratory activity in human SK-HEP1 cells overexpressing PC assessed as suppression of cell migration at 0.5 nM measured after 48 hrs by wound healing assay; format: functional, cell-based
HCCLM3 [19] = assay: Induction of apoptosis in human HCCLM3 cells assessed as cell shrinkage at 20 nM incubated for 24 hrs by DAPI staining based phase contrast microscopic analysis; format: functional
HepG2 [20] = assay: Effect on cell cycle arrest in human HepG2 cells assessed as increase in accumulation of cells in G2/M phase at 20 to 80 nM incubated for 24 hrs by propidium iodide staining based flow cytometry analysis; format: functional; conditions: dose 20-80 nM, TDE = time-dependent effect
[21] = Toxicity in NCR-nu/nu mouse bearing human HepG2 tumor assessed as effect on body weight at 25 to 50 mg/kg, ip administered alternate days for 21 days and measured every three days; format: organism-based; conditions: in vivo, 504 h, dose 25-50 mg/kg, time 21 day
Homo sapiens = species on record: Homo sapiens; assay: Binding affinity to recombinant pyruvate carboxylase (unknown origin) assessed as thermal stability at upto 1000 nM by cellular thermal […] assay; conditions: dose nM <=1000
HCCLM3 [22] = assay: Induction of mitochondrial oxidative stress in human HCCLM3 cells overexpressing PC assessed as accumulation of ROS at 10 nM by DCFH-DA staining based flow cytometry analysis; format: functional, cell-based
HCCLM3 [23] = assay: Induction of glycolysis in PC knockout human HCCLM3 cells assessed as intracellular lactate concentration at 10 nM CheKine lactate assay; format: functional, cell-based
SK-HEP1 [24] = assay: Inhibition of mesenchymal transition in human SK-HEP1 cells overexpressing PC assessed as effect on N-cadherin expression; format: functional, cell-based
HCCLM3 [25] = assay: Reversal of H2O2-induced cell death in human HCCLM3 cells at 10 nM pretreated for 24 hrs followed by H2O2 addition and further incubated for 24 hrs in presence of OAA by MTT assay; format: functional, cell-based; conditions: time 48.0 hrs
HCCLM3 [26] = assay: Cytotoxicity against human HCCLM3 cells assessed as reduction in cell viability at 5 to 20 nM incubated for 48 hrs in presence of H2O2 by MTT assay; format: functional, cell-based; conditions: dose 5-20 nM
HCCLM3 [27] = assay: Antimigratory activity in human HCCLM3 cells assessed as inhibition of scratch closure at 0.05 to 1 nM measured after 24 hrs by wound healing assay; format: functional, cell-based; conditions: dose 0.05-1 nM
[28] = Systemic toxicity in NCR-nu/nu mouse bearing human HCCLM3 tumor assessed as pathological change in kidney at 25 to 50 mg/kg, ip administered alternate days for 21 days and measured 26 days post implantation by H and E staining based analysis; format: organism-based; conditions: in vivo, 504 h, dose 25-50 mg/kg, time 21 day
HCCLM3 [29] = assay: Induction of glycolysis in human HCCLM3 cells assessed as decrease in level of aspartate at 5 nM; format: functional, cell-based
HepG2 [30] = assay: Inhibition of pyruvate carboxylase in human HepG2 cells measured at 10 nM upto 24 hrs; format: cell-based; conditions: time hrs <=24
HCCLM3 [31] = assay: Induction of glycolysis in human HCCLM3 cells assessed as decrease in level of L-lactate at 5 nM; format: functional, cell-based
[32] = Antitumor activity against human HCCLM3 cells xenografted in NCR-nu/nu mouse assessed wet tumor weight at 50 mg/kg, ip administered alternate days for 21 days and measured 26 days post implantation (Rvb= 1.835 +/- 0.15 g); format: functional; conditions: time 21 day

Q: Which results are given for COc1ccc(CCc2cc(OC)c(OC)c(OC)c2)cc1O?
A: Activity [1]: Non-Toxic; Activity (HepG2 [2]): Dose-Dependent Effect; Activity (HepG2 [3]): Active; Activity (HCCLM3 [4]): Active; Activity (SK-HEP1 [5]): Active; Activity (HepG2 [6]): inactive; Activity (HepG2 [7]): 0.32 g; inhibition (SK-HEP1 [8]): inactive; Activity (HCCLM3 [9]): Active; IC50 (MHCC97): 0.386 µM; Activity (HCCLM3 [10]): Active; Activity (HepG2 [11]): Active; Activity [12]: Active; inhibition (HepG2 [13]): Active; Activity (HepG2 [14]): inactive; Activity [15]: 1.1883 g; Activity (HCCLM3 [16]): Active; IC50 [17]: 13.1 µM; Activity (SK-HEP1 [18]): Active; Activity (HCCLM3 [19]): Active; Activity (HepG2 [20]): Tde; Activity [21]: Non-Toxic; Activity (Homo sapiens): Active; Activity (HCCLM3 [22]): inactive; Activity (HCCLM3 [23]): Active; inhibition (SK-HEP1 [24]): inactive; Activity (HCCLM3 [25]): Active; Activity (HCCLM3 [26]): Active; Activity (HCCLM3 [27]): Active; Activity [28]: Non-Toxic; Activity (HCCLM3 [29]): Active; inhibition (HepG2 [30]): inactive; Activity (HCCLM3 [31]): Active; Activity [32]: 0.695 g
